Reference: PubChem BioAssay AID2060897 (Molecular Pharmacology Branch, DTP, NCI, 2025)
pIC50: −log10 of the molar value.

Tested on: 966289-007-R4-J1-PDC complex spheroid viability
Experiment: Anticancer human tumor 966289-007-R4-J1-PDC patient-derived pancreatic adenocarcinoma cell line growth inhibition [RAS]
Settings: for pIC50: curve of first compound; for viability, T/C: stronger effect = lower value
Source text: RAS pathway inhibitors in Combinations in Complex Spheroids
A high-throughput screen of multi-cell type tumor spheroids was designed to identify active combinations of RAS pathway inhibitors and targeted small molecules. Complex spheroids include a stromal component modeled by human endothelial cells (HUVEC) and fibroblasts modeled by human mesenchymal stem cells (MSCs). The concentration ranges selected for each drug and investigational agent were based upon clinically achievable concentrations if the clinical Cmax of the agent was known.
Compounds. The drugs and investigational agents: abemaciclib (NSC768073), cobimetinib (NSC768068), divarasib (GDC6063, NSC841802), docetaxel (NSC628503), GDC-1971 (RLY-1971, NSC841576), gemcitabine (NSC613327), inavolisib (NSC800729), ipatasertib (NSC767898), KB-0742 (NSC834161), MRTX-1133 (NSC836407), osimertinib (NSC779217), RMC-4630 (NSC839698), RMC-6236 (NSC851965), RMC-6291 (NSC852671), Ro-3306 (NSC812927), sapanisertib (NSC764658), SN-38 (NSC673596), staurosporine (NSC755774), SY5609 (NSC837396), and tovorafenib (DAY101, NSC766906), were obtained from the National Cancer Institute (NCI) Developmental Therapeutics Program Chemical Repository. The FDA-approved anticancer drug set is available from the NCI Developmental Therapeutics Program. […] The stock solutions were prepared in dimethyl sulfoxide (DMSO, Sigma-Aldrich, St. Louis, MO, cat. D2650) at 800-fold the tested concentration and stored at -70 degrees C prior to their use. All drugs and investigational agents were tested over a range starting from a high concentration at or near the clinical Cmax and decreasing in half-log increments. If the clinical Cmax for an agent had not been determined, the highest concentration tested was 10 microM.
Cell Culture. All cells were maintained in an incubator at 37 degrees C and 5% CO2 with 95% humidity. The PDC lines were cultured according to standard operating procedures established by the NCI PDMR. All PDCs were thawed and cultured in Matrigel-coated flasks prepared with a working solution of 1X Ham's F-12 nutrient mix, without supplementation (Invitrogen, Waltham, MA, cat. 11765054), 100 U/mL penicillin-streptomycin (Invitrogen, cat. 15140122), and 2.5% Matrigel (Corning Inc., Corning, NY, cat. 354248) for the first three passages. The 362531-283-R-J2-PDC and 782815-120-R-J1-PDC lines were cultured in 6C/Colon 1B media, which includes advanced DMEM/F-12 (Thermo Fisher Scientific, cat. 12634028), 10 mM HEPES (Thermo Fisher Scientific, cat. 15630080), 1X GlutaMAX supplement (Thermo Fisher Scientific, cat. 35050061), 0.1 mg/mL primocin (InvivoGen, San Diego, CA, cat. ant-pm-2), 10% defined fetal bovine serum, heat inactivated (HyClone Laboratories Inc., Logan, UT, cat. SH30070.03HI), 50% L-WRN conditioned media (ATCC, cat. CRL-3276), 1.25 mM N-Acetyl-L-cysteine (Sigma-Aldrich, cat. A9165), 10 mM nicotinamide (Sigma-Aldrich, cat. N0636), 1X B-27 supplement (Thermo Fisher Scientific, cat. 17504044), 1X N-2 supplement (Thermo Fisher Scientific, cat. 17502048), 50 ng/mL human EGF (Thermo Fisher Scientific, cat. PHG0311), and 10 microM Y-27632 dihydrochloride (Tocris Bioscience, cat. 1254). The K12877-001-R-J1-PDC line was cultured in 6I media, which includes all 6C/Colon 1B media plus 10 ng/mL human FGF-10 (PeproTech, cat. 100-26), 1 ng/mL human FGF-2 (PeproTech, cat. 100-18B), 1 µM prostaglandin E2 (Tocris Bioscience, cat. 2296), […] hydrocortisone (Sigma-Aldrich, cat. H4001), and […] bovine insulin (Sigma-Aldrich, cat. I6634). The K86415-001-R-J1-PDC line was cultured in 6D media, which includes all 6C/Colon 1B media components minus the L-WRN conditioned media. The 485176-168-R4-J1-PDC was cultured in PANC media, which includes all 6C/Colon 1B media plus 100 ng/mL human FGF-10 (PeproTech, cat. 100-26), 500 nM SB-431542 (Selleckchem, cat. S1067), and 10 nM gastrin (Tocris Bioscience, cat. 3006). […]
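Note: spheroids exposed to agents for one week before readout.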
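Throughout, for viability, T/C: percent viability relative to DMSO vehicle control wells as 100%.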

pIC50 (second compound 0.0316 µM): < 6.00 | pIC50 (second compound 0.1 µM): < 6.00 | pIC50 (second compound 0.316 µM): < 6.00 | pIC50 (second compound 1 µM): < 6.00 | pIC50 (second compound 3.16 µM): < 6.00 | pIC50 (second compound 10 µM): < 6.00
SMILES: C=CC(=O)Nc1cc(Nc2nccc(-c3cn(C)c4ccccc34)n2)c(OC)cc1N(C)CCN(C)C + C#Cc1c(F)ccc2cc(O)cc(-c3ncc4c(N5CC6CCC(C5)N6)nc(OCC56CCCN5CC(F)C6)nc4c3F)c12
viability, T/C (second compound 0.0316 µM, first compound 0.00316 µM): 107% | viability, T/C (second compound 0.0316 µM, first compound 0.01 µM): 96% | viability, T/C (second compound 0.0316 µM, first compound 0.0316 µM): 101% | viability, T/C (second compound 0.0316 µM, first compound 0.1 µM): 96.3% | viability, T/C (second compound 0.0316 µM, first compound 0.316 µM): 94.2% | viability, T/C (second compound 0.0316 µM, first compound 1 µM): 94% | viability, T/C (second compound 0.1 µM, first compound 0.00316 µM): 94.8% | viability, T/C (second compound 0.1 µM, first compound 0.01 µM): 103% | viability, T/C (second compound 0.1 µM, first compound 0.0316 µM): 99.8% | viability, T/C (second compound 0.1 µM, first compound 0.1 µM): 110% | viability, T/C (second compound 0.1 µM, first compound 0.316 µM): 90.4% | viability, T/C (second compound 0.1 µM, first compound 1 µM): 88.8% | viability, T/C (second compound 0.316 µM, first compound 0.00316 µM): 108% | viability, T/C (second compound 0.316 µM, first compound 0.01 µM): 92.6% | viability, T/C (second compound 0.316 µM, first compound 0.0316 µM): 114% | viability, T/C (second compound 0.316 µM, first compound 0.1 µM): 105% | viability, T/C (second compound 0.316 µM, first compound 0.316 µM): 105% | viability, T/C (second compound 0.316 µM, first compound 1 µM): 87.2% | viability, T/C (second compound 1 µM, first compound 0.00316 µM): 102% | viability, T/C (second compound 1 µM, first compound 0.01 µM): 93.1% | viability, T/C (second compound 1 µM, first compound 0.0316 µM): 97% | viability, T/C (second compound 1 µM, first compound 0.1 µM): 106% | viability, T/C (second compound 1 µM, first compound 0.316 µM): 97.9% | viability, T/C (second compound 1 µM, first compound 1 µM): 82.8% | viability, T/C (second compound 3.16 µM, first compound 0.00316 µM): 108% | viability, T/C (second compound 3.16 µM, first compound 0.01 µM): 107% | viability, T/C (second compound 3.16 µM, first compound 0.0316 µM): 129% | viability, T/C (second compound 3.16 µM, first compound 0.1 µM): 101% | viability, T/C (second compound 3.16 µM, first compound 0.316 µM): 114% | viability, T/C (second compound 3.16 µM, first compound 1 µM): 106% | viability, T/C (second compound 10 µM, first compound 0.00316 µM): 97.5% | viability, T/C (second compound 10 µM, first compound 0.01 µM): 109% | viability, T/C (second compound 10 µM, first compound 0.0316 µM): 108% | viability, T/C (second compound 10 µM, first compound 0.1 µM): 118% | viability, T/C (second compound 10 µM, first compound 0.316 µM): 91.3% | viability, T/C (second compound 10 µM, first compound 1 µM): 115%
